Consider one substance from US9241889B2, “Oral compositions comprising sodium dodecylbenzene sulfonate” (Glaxo Group Limited, priority 2010, dated 2016).

Assay [1] can be described thus: Hydroxyapatite Tea Stain Removal Model (HATSR). The procedure: A 96 well hydroxyapatite coated microtitre plate was treated with 100 μl aliquots of tea per well (1 teabag (PG Tips)/50 ml of deionised water) and the plate incubated at 37° C./100 rpm. After 10 minutes the plate was washed with deionised water and dried at 37° C. overnight. The test actives (200 μl per well) were added into each column of the tea coated plate along with the positive and negative control (5% sodium tripolyphosphate (STP) and water respectively) and the plate returned to the incubator. After 10 minutes the plate was once again washed and the bound stain was desorbed by the application of 200 μl of 2.5M citric acid per well. After a minimum of 12 hours, 180 μl of the tea/citric acid solutions were transferred to a clean, normal (not HA coated) 96 well microtitre plate and the absorption measured 405 nm.

Assay [2] can be described thus: Hydroxyapatite Stain Prevention Model (HASP). As for the experimental part:
A 96 well hydroxyapatite coated microtitre plate was treated with whole unstimulated human saliva (100 μl per well) at 37° C./100 rpm. After 1 hour the plate was washed to remove any unbound components and 200 μl of each test active was transferred to the plate in columns along with a positive and negative control (5% sodium tripolyphosphate, STP), and water respectively) and the plate returned to the incubator. After 10 minutes the plate was once again washed and the plate was stained by the application of 200 μl of fresh tea solution (1 teabag (PG tips)/50 ml of deionised water). After an additional 10 minutes of incubation, the tea was removed and the plate washed. Finally, the bound stain was desorbed by the application of 200 μl of 2.5M citric acid per well. After a minimum of 12 hours, 180 μl of the tea/citric acid solutions were transferred to a clean, normal (not HA coated) 96 well microtitre plate and the absorption measured 405 nm.

Regarding “sodium dodecylbenzene sulphonate [SDDBS]”, the stain removal result in assay [1] (SDDBS solutions 0.1%-10%, pH 7, n=8, FIG. 2) is reported as “removes stain in a dose dependent manner”. For the same substance, the “stain removal versus water negative control” value in assay [1] (all SDDBS concentrations except 0.125%, pH 7, FIG. 2) is on record as “statistically superior to the water negative control”. In addition, in assay [1] (all SDDBS concentrations, pH 7, FIG. 2), the “stain removal versus positive control 5% STP” value was “none were as effective as the positive control STP”. Moreover, the “stain prevention versus water negative control” value in assay [2] (0.1% SDDBS, pH 7, FIG. 1) is on record as “only directionally superior”; in assay [2] (all SDDBS concentrations except 0.1%, pH 7, FIG. 1) it was “statistically superior to the water negative control”. Moreover, the “stain prevention (uptake of dietary stain onto HASP model oral surfaces)” value in assay [2] (SDDBS solutions 0.1%-10%, pH 7, n=8, FIG. 1) was “prevents the uptake of dietary stain”. For the same substance, the “stain prevention versus positive control 5% STP” value in assay [2] (all SDDBS concentrations 0.1%-10%, pH 7, FIG. 1) is reported as “none were as effective as the positive control STP”. Besides, the “stain prevention versus SLS” value in assay [2] (equivalent concentration (1% surfactant), pH 7, n=8, FIG. 3) is “statistically superior to sodium lauryl sulphate (SLS)”.
